Experiments:
[1] = test system: human colorectal carcinoma (HCT116); test: MTT cytotoxicity assay, HCT116; type: cell-based; conditions: 48 h exposure, read-out: IC50 ± SD, HCT116
Protocol: (§1) The cytotoxic activity of the complexes obtained was screened against several human solid and hematopoietic cancer cell lines using the conventional MTT assay. To evaluate their selectivity for cancerous over non-cancerous cells, analogous tests were performed with pseudonormal human embryonic kidney (HEK293) and breast epithelial (HBL100) cell lines.
(§2) The cytotoxicity of the compounds obtained was investigated on human colorectal carcinoma (HCT116), breast cancer (MCF7), prostate adenocarcinoma (PC3), glioblastoma (U251), ovarian adenocarcinoma (Scov3), chronic myelogenous leukemia (K562 and K562/iS9), multiple plasmacytoma (AMO1), and acute lymphoblastic leukemia (H9) cell lines, as well as human embryonic kidney (HEK293) and mammary epithelial (HBL100 and HBL100/Dox) cells used as non-cancerous cell lineages. All the cell lines were obtained from American Type Culture Collection (ATCC). The tested compounds were initially dissolved in DMSO. Cisplatin was obtained from a commercial source (as an infusion concentrate in natural saline solution). The experiments were performed using the conventional MTT assay (ICN Biomedicals, Eschwege, Germany) according to the previously published procedure.

breast cancer (MCF7) = test: MTT cytotoxicity assay, MCF7; type: cell-based, human; conditions: 48 h exposure, read-out: IC50 ± SD, MCF7
Protocol: as §1, §2

[2] = test system: prostate adenocarcinoma (PC3); test: MTT cytotoxicity assay, PC3; type: cell-based, human; conditions: 48 h exposure, read-out: IC50 ± SD, PC3
Protocol: as §1, §2

[3] = test system: human embryonic kidney (HEK293); test: MTT cytotoxicity assay, HEK293; type: cell-based; conditions: 48 h exposure, non-cancerous cells, read-out: IC50 ± SD, HEK293
Protocol: as §1, §2

[4] = test system: mammary epithelial cells HBL100; test: MTT cytotoxicity assay, HBL100; type: cell-based, human; conditions: 48 h exposure, non-cancerous cells, read-out: IC50 ± SD, HBL100
Protocol: as §1, §2

[5] = test system: doxorubicin-resistant mammary epithelial cells HBL100/Dox; test: MTT cytotoxicity assay, HBL100/Dox; type: cell-based, human; conditions: 48 h exposure, doxorubicin-resistant clone, read-out: IC50 ± SD, HBL100/Dox
Protocol: as §1, §2

[6] = test system: chronic myelogenous leukemia (K562); test: MTT cytotoxicity assay, K562; type: cell-based, human; conditions: 48 h exposure, read-out: IC50 ± SD, K562
Protocol: as §1, §2

[7] = test system: doxorubicin-resistant subline of chronic myelogenous leukemia cells (K562/iS9); test: MTT cytotoxicity assay, K562/iS9; type: cell-based, human; conditions: 48 h exposure, read-out: IC50 ± SD, K562/iS9
Protocol: as §1, §2

[8] = test system: multiple plasmacytoma (AMO1); test: MTT cytotoxicity assay, AMO1; type: cell-based, human; conditions: 48 h exposure, read-out: IC50 ± SD, AMO1
Protocol: as §1, §2

[9] = test system: acute lymphoblastic leukemia (H9); test: MTT cytotoxicity assay, H9; type: cell-based, human; conditions: 48 h exposure, read-out: IC50 ± SD, H9
Protocol: as §1
as §2, with “Cisplatin was obtained from a commercial source (as an infusion concentrate in natural saline solution).” left out

glioblastoma (U251) = test: MTT cytotoxicity assay, U251; type: cell-based, human
Protocol: as §1, §2

[10] = test system: ovarian adenocarcinoma (Scov3); test: MTT cytotoxicity assay, Scov3; type: cell-based, human
Protocol: as §1, §2

[11] = Stability in DMSO solution by 31P NMR monitoring; type: physicochemical; conditions: at least for several days
Excerpt: The identities and structures of both free amides 2–8 and their cyclopalladated derivatives were unambiguously confirmed based on the IR and multinuclear NMR spectroscopic data (including different 2D NMR techniques), as well as elemental analyses, which are presented in detail in Section 3 (Materials and Methods) and Figures S1–S31 in the Supporting Information (SI). The realization of metalation of the central secondary amide unit in the resulting complexes was supported by the lack of NH proton singlets in the ^1H NMR spectra, as well as the absence of amide II and amide A bands in the IR spectra. The coordination of the thiophosphoryl pendant arm was evidenced by a strong downfield shift of the phosphorus resonance (ΔδP = 8.1–17.4 ppm) and the displacement of the P=S bond stretches towards lower frequencies, which reached up to 65 cm^−1. The coordination of the additional N- or S-donor unit was indirectly indicated by considerable shifts of the signals of CH/CH3 protons or quaternary carbon nuclei located in the close proximity to the heteroatom (for example, ΔδH for the methyl substituent in the thioether group of 13a,b was more than 0.65 ppm, while a coordination shift of the proton signal, corresponding to the CH unit adjacent to the nitrogen atom of the pyridine ring of 9, composed 0.45 ppm).

[12] = test system: Bacillus subtillis (VKM B-501); test: Agar well diffusion, B. subtillis; type: cell-based
Protocol: (§3) The microbial strains Bacillus subtillis (VKM B-501), Micrococcus luteus (VKM Ac-2230), and Groenewaldozyma auringiensis (VKM Y-2927) were used for antimicrobial activity tests. All strains were obtained from the All-Russian Collection of Microorganisms (VKM) at the Skryabin Institute of Biochemistry and Physiology of Microorganisms, Pushchino Scientific Center of Biological Research. B. subtilis and M. luteus were grown on the following medium (g/L): aminopeptide 60 mL; tryptone 5.0 g; yeast extract 1.0 g; soybean extract 30 mL; bacto-agar 15.0 g; final pH 7.2. G. auringiensis was grown on malt extract medium containing the following medium (g/L): malt extract 12.75; dextrin 2.75; glycerol 2.35; gelatin peptone 0.78; bacto-agar 15; final pH 5.4. The antimicrobial activity of ligand 17 and its cyclopalladated derivative 18 (both in the racemic form) was studied by the agar well diffusion method. The overnight grown culture of each strain (100 µL) was applied to the surface of the solid medium, then spread on agar plates using a glass spreader, and left for 30 min. The wells were cut in the culture plates using a sterilized glass tube (4 mm in diameter), and each compound sample was dissolved in DMSO to a final concentration of 0.25 or 2.5 mM (10 µL) and was placed in each well. After this, the plates were kept at room temperature for 3 h to improve the diffusion of the compounds and incubated at 28 °C for 24 h. DMSO (15%) was used as a negative control, while kanamycin (50 mg/mL) was used as a positive control. The antimicrobial activity was determined by measuring the inhibition zone around each well as a mean of three replicates.

[13] = test system: Micrococcus luteus (VKM Ac-2230); test: Agar well diffusion, M. luteus; type: cell-based
Protocol: as §3

[14] = test system: Groenewaldozyma auringiensis (VKM Y-2927); test: Agar well diffusion, G. auringiensis; type: cell-based
Protocol: as §3

[15] = test system: doxorubicin-resistant mammary epithelial cells HBL100/Dox; conditions: cited from earlier work
[16] = test system: doxorubicin-resistant subline of chronic myelogenous leukemia cells (K562/iS9); conditions: cited from earlier work
[17] = agar well diffusion, 0.25 or 2.5 mM, racemic form

Molecule `O=C1c2cc(Cl)cc[n+]2[Pd-2]2([Cl])[S+]=P(c3ccccc3)(c3ccccc3)C(c3ccccc3)[N]12` (racemic) [Compound 9, [κ^3-S,N,N-(L)Pd(II)Cl] complex] has an IC50 [1] of 7 ± 0.5 µM, an IC50 (breast cancer (MCF7)) of 6.2 ± 2 µM and an IC50 [2] of 8 ± 0.5 µM. It also gave an IC50 [3] of 10 ± 4 µM, an IC50 [4] of 6.5 ± 1.5 µM and an IC50 [5] of 10.5 ± 1.5 µM. For the same molecule, the IC50 [6] was 8 ± 1.5 µM, the IC50 [7] was 6.2 ± 1.8 µM and the IC50 [8] was 2.4 ± 0.6 µM. It also gave an IC50 [9] of 3.2 ± 0.4 µM, an IC50 (glioblastoma (U251)) of 9 ± 1 µM and an IC50 [10] of 8 ± 0.7 µM. For the same molecule, the “stability in solution (DMSO)” value [11] was “stable in solution”.
In the case of `O=C1c2ccc3ccccc3[n+]2[Pd-2]2([Cl])[S+]=P(c3ccccc3)(c3ccccc3)C(c3ccccc3)[N]12` (racemic) [Compound 10a, [κ^3-S,N,N-(L)Pd(II)Cl] complex], the IC50 [1] is reported as 22 ± 2 µM, the IC50 (breast cancer (MCF7)) is reported as > 65 µM and the IC50 [2] is reported as 33 ± 3 µM. For the same molecule, the IC50 [3] was 15 ± 4 µM, the IC50 [4] was > 60 µM and the IC50 [5] was > 60 µM.
Molecule `O=C1c2sc3ccccc3[n+]2[Pd-2]2([Cl])[S+]=P(c3ccccc3)(c3ccccc3)C(c3ccccc3)[N]12` (racemic) [Compound 12, [κ^3-S,N,N-(L)Pd(II)Cl] complex] has an IC50 [1] of 11.3 ± 3.1 µM, an IC50 (breast cancer (MCF7)) of 19 ± 4.2 µM and an IC50 [2] of 10 ± 2.8 µM. For the same molecule, the IC50 [3] was 6.5 ± 2.2 µM, the IC50 [4] was 12 ± 3.5 µM and the IC50 [5] was 6.7 ± 1.5 µM. The IC50 [6] was 4.2 ± 0.8 µM, the IC50 [7] was 2 ± 0.4 µM and the IC50 [8] was 3.7 ± 0.7 µM. The IC50 [9] was 2.2 ± 0.7 µM.
`C[S+]1CC(=O)[N]2C(c3ccccc3)P(c3ccccc3)(c3ccccc3)=[S+][Pd-2]21[Cl]` (racemic) [Compound 13a, [κ^3-S,N,S-(L)Pd(II)Cl] complex] showed an IC50 [1] of 17 ± 2 µM, an IC50 (breast cancer (MCF7)) of 31 ± 6 µM and an IC50 [2] of 30 ± 2.5 µM. It also gave an IC50 [3] of 22 ± 6 µM, an IC50 [4] of 32 ± 6 µM and an IC50 [5] of 54 ± 5.6 µM. It also gave an IC50 [6] of 14.2 ± 2.2 µM, an IC50 [7] of 15.2 ± 1.8 µM and an IC50 [8] of 4.2 ± 0.3 µM. The IC50 [9] was 4 ± 0.6 µM.
Work on `C[S+]1c2ccccc2C(=O)[N]2C(c3ccccc3)P(c3ccccc3)(c3ccccc3)=[S+][Pd-2]21[Cl]` (racemic) [Compound 14, [κ^3-S,N,S-(L)Pd(II)Cl] complex] yielded an IC50 [1] of 4.5 ± 1.1 µM, an IC50 (breast cancer (MCF7)) of 9.2 ± 0.9 µM and an IC50 [2] of 4.2 ± 1.4 µM. It also gave an IC50 [3] of 4.9 ± 1.5 µM, an IC50 [4] of 8.4 ± 0.5 µM and an IC50 [5] of 2.1 ± 0.3 µM. It also gave an IC50 [6] of 2.1 ± 0.2 µM, an IC50 [7] of 1.7 ± 0.2 µM and an IC50 [8] of 1.2 ± 0.3 µM. It also gave an IC50 [9] of 2.3 ± 0.5 µM.
With `O=C1c2ccc3ccccc3[n+]2[Pd-2]2([Cl])[S+]=P(c3ccccc3)(c3ccccc3)C[N]12` (stereo not shown) [Compound 10b, [κ^3-S,N,N-(L)Pd(II)Cl] complex] the IC50 [1] was 14 ± 4 µM, the IC50 (breast cancer (MCF7)) was 31 ± 2 µM and the IC50 [2] was 23 ± 1 µM. It also gave an IC50 [3] of 20 ± 4 µM, an IC50 [4] of 34.2 ± 2.8 µM and an IC50 [5] of 46 ± 1.4 µM. For the same molecule, the “stability in solution (DMSO)” value [11] was “stable in solution”.
`O=C1c2cccc3ccc[n+](c23)[Pd-2]2([Cl])[S+]=P(c3ccccc3)(c3ccccc3)C[N]12` (stereo not shown) [Compound 11, [κ^3-S,N,N-(L)Pd(II)Cl] complex] showed an IC50 [1] of 18 ± 2 µM, an IC50 (breast cancer (MCF7)) of 46 ± 4 µM and an IC50 [2] of 31 ± 1 µM. For the same molecule, the IC50 [3] was 41 ± 4 µM, the IC50 [4] was 29 ± 5 µM and the IC50 [5] was 41 ± 1 µM.
`C[S+]1CC(=O)[N]2CP(c3ccccc3)(c3ccccc3)=[S+][Pd-2]21[Cl]` (stereo not drawn) [Compound 13b, [κ^3-S,N,S-(L)Pd(II)Cl] complex] showed an IC50 [1] of 23 ± 7 µM, an IC50 (breast cancer (MCF7)) of 40 ± 5 µM and an IC50 [2] of 30 ± 2 µM. For the same molecule, the IC50 [3] was 34 ± 2 µM, the IC50 [4] was 52 ± 4 µM and the IC50 [5] was > 60 µM.
For `CC(C)C(NC(=O)c1ccccn1)P(=S)(c1ccccc1)c1ccccc1` (stereo not shown) [Compound 17], the “inhibitory effect on microorganisms, B. subtillis” value [12, 17] was “did not exert any inhibitory effect”, the “inhibitory effect on microorganisms, M. luteus” value [13, 17] was “did not exert any inhibitory effect” and the “inhibitory effect on microorganisms, G. auringiensis” value [14, 17] was “did not exert any inhibitory effect”.
For `NC[C@H]1O[C@H](O[C@H]2[C@H](O)[C@@H](O[C@H]3O[C@H](CO)[C@@H](O)[C@H](N)[C@H]3O)[C@H](N)C[C@@H]2N)[C@H](O)[C@@H](O)[C@@H]1O` [Km, kanamycin, reference compound], the “Inhibition Zone, B. subtillis (VKM B-501)” value ([12]; 50 mg/mL, positive control) was 10.0 ± 0.8 mm, the “Inhibition Zone, M. luteus (VKM Ac-2230)” value ([13]; 50 mg/mL, positive control) was 15.0 ± 1.0 mm and the “Inhibition Zone, G. auringiensis (VKM Y-2927)” value ([14]; 50 mg/mL, positive control) was 0 mm.
Molecule `N.N.[Cl][Pt][Cl]` [cisplatin, reference compound] has an IC50 [1] of 18 ± 2 µM, an IC50 (breast cancer (MCF7)) of 25 ± 4 µM and an IC50 [2] of 16 ± 3 µM. For the same molecule, the IC50 [3] was 12.5 ± 1.5 µM, the IC50 [4] was 14.6 ± 3.6 µM and the IC50 [5] was 23.6 ± 3.6 µM. The IC50 [6] was 15.5 ± 0.5 µM, the IC50 [7] was 16 ± 2 µM and the IC50 [8] was 3.2 ± 0.6 µM.
For `COc1cccc2c1C(=O)c1c(O)c3c(c(O)c1C2=O)C[C@@](O)(C(=O)CO)C[C@@H]3O[C@H]1C[C@H](N)[C@H](O)[C@H](C)O1` [doxorubicin], the “times less active against the resistant clone (HBL100/Dox vs HBL100)” value [15] is listed as “more than 80 times” and the “factor of decrease in efficiency, K562/iS9 vs parental K562” value [16] is listed as 20.

From article PMC12111564, “Extended Family of Thiophosphoryl-Appended Pd(II) Pincer Complexes with a Deprotonated Amide Core: Synthesis and Biological Evaluation” (International Journal of Molecular Sciences, 2025)
